Where two headings read alike, the source gives them in different places.
Tests used:
Assay type in all cases: cell-based
[1] = system: Streptococcus mutans; test: Minimum inhibitory concentration (MIC), serial two-fold dilution with resazurin test; settings: for MIC: Streptococcus mutans
[2] = system: Streptococcus sobrinus; test: as above; settings: for MIC: Streptococcus sobrinus
[3] = system: Streptococcus sobrinus; test: Minimum biofilm inhibitory concentration (MBIC), crystal violet staining; settings: S. sobrinus; for MBIC in indicvdual replicates Replicate 1 / MBIC in indicvdual replicates Replicate 2 / MBIC in indicvdual replicates Replicate 3 / MBIC in indicvdual replicates Replicate 4 / MBIC in indicvdual replicates Replicate 5: 24 h incubation; for MBIC Median value: median of 5 replicates
Protocol: (§1) Group of examples No 4 - 6. Anti-biofilm activity of the substance or of the composition of substances was assessed from minimum biofilm inhibitory concentration (MBIC) and from the rate of biofilm formation on hydroxyapatite disks.
(§2) Reference strains Streptococcus mutans and S. Sobrinus were used as the bacterial models.
(§3) Example No 4. MBIC as the measure of the substance effect on the bacterial biofilm is equal to minimum concentration inhibiting the biofilm formation or disruption of already formed biofilm during 24 hour incubation.
(§4) MBIC of individual components of the composition, specifically, naringenin, guava leaf CO2 extract, and enzymes lysozyme and labiase can be determined according to the procedure: • 1) All stages of nutritive medium preparation, preparation and incubation of bacterial cultures in 96-well microtiter plates with the test composition of the substances added into nutritive medium were as described in Example 1. • 2) All controls for the culture growth, for purity of nutritive medium and for solvents were as described in Example 1. • 3) Incubate the plates at 37 °C for 24 ± 4 h without the use the orbital shaker. • 4) Stain the bacterial biofilm accumulated on bottom of the plate wells with crystal violet. For this purpose remove the planktonic culture from the plate wells after 24 h incubation and wash with two portions of phosphate-buffered saline (PBS, pH 7.4) to remove remaining planktonic culture. Then dry the plate for 12-15 hours. Add 100 µL of 0.5% crystal violet solution (Sigma-Aldrich, USA), dissolved in 96% ethanol followed by incubation for 20 minutes. After removal of crystal violet solution from the wells wash the plate with 3-4 portions of PBS. After drying add […] of 96% ethanol into the wells to elute the crystal violet, which has bound to the biofilm. • 5) Shake the plate on the orbital shaker for 2 minutes at 37 °C and then measure optical density (OD) at the wavelength of 550nm using multimodal microplate reader against the blank (the well, where the sterile medium LB was incubated and then exposed to all staining manipulations). Since the serial dilution method with 2-fold dilution steps is used for MBIC determination, the difference between the adjacent dilution is considered as non-significant, and MBIC is defined as the median value calculated for 5 independent biological replicates of the experiment. • 6) The following concentrations were tested: naringenin and guava leaf extract at concentrations 1.6, 0.8, 0.4, 0.2, 0.1, 0.05 mg/mL; lysozyme and labiase at concentrations 4.0, 2.0, 1.0, 0.5, 0.25, 0.125 mg/mL. Well-known antibacterial components were used as controls: chlorohexidine bigluconate at concentrations 64, 32, 16, 8, 4 µg/mL; zinc gluconate at concetrations 5.0, 2.5, 1.25, 0.6, 0.3, 0.15 mg/mL.

[4] = system: Streptococcus mutans; test: as above; settings: S. mutans; for MBIC in indicvdual replicates Replicate 1 / MBIC in indicvdual replicates Replicate 2 / MBIC in indicvdual replicates Replicate 3 / MBIC in indicvdual replicates Replicate 4 / MBIC in indicvdual replicates Replicate 5: 24 h incubation; for MBIC Median value: median of 5 replicates
Protocol: as §1, §2, §3, §4

[5] = 24 h, read-out: MIC value in individual replicate Replicate 1
[6] = 24 h, read-out: MIC value in individual replicate Replicate 2
[7] = 24 h, read-out: MIC value in individual replicate Replicate 3
[8] = 24 h, read-out: MIC value in individual replicate Replicate 4
[9] = 24 h, read-out: MIC value in individual replicate Replicate 5

Molecule	MBIC in indicvdual replicates Replicate 1 [3]	MBIC in indicvdual replicates Replicate 2 [3]	MBIC in indicvdual replicates Replicate 3 [3]	MBIC in indicvdual replicates Replicate 4 [3]	MBIC in indicvdual replicates Replicate 5 [3]	MBIC Median value [3]	MBIC in indicvdual replicates Replicate 1 [4]	MBIC in indicvdual replicates Replicate 2 [4]	MBIC in indicvdual replicates Replicate 3 [4]	MBIC in indicvdual replicates Replicate 4 [4]	MBIC in indicvdual replicates Replicate 5 [4]	MBIC Median value [4]	also measured
zinc gluconate	5.0 mg/mL	5.0 mg/mL	2.5 mg/mL	2.5 mg/mL	2.5 mg/mL	2.5 mg/mL	1.25 mg/mL	1.25 mg/mL	0.6 mg/mL	0.6 mg/mL	0.6 mg/mL	0.6 mg/mL	MIC value in individual replicate Replicate 1 ([1]; S. mutans, 24 h at 37 °C): 600 mg/L; MIC value in individual replicate Replicate 2 ([1]; S. mutans, 24 h at 37 °C): 600 mg/L; MIC value in individual replicate Replicate 3 ([1]; S. mutans, 24 h at 37 °C): 300 mg/L; MIC value in individual replicate Replicate 4 ([1]; S. mutans, 24 h at 37 °C): 300 mg/L; MIC value in individual replicate Replicate 5 ([1]; S. mutans, 24 h at 37 °C): 300 mg/L; MIC Median value ([1]; S. mutans, median of 5 replicates): 300 mg/L; MIC value in individual replicate Replicate 1 ([2]; S. sobrinus, 24 h at 37 °C): 5000 mg/L; MIC value in individual replicate Replicate 2 ([2]; S. sobrinus, 24 h at 37 °C): 5000 mg/L; MIC value in individual replicate Replicate 3 ([2]; S. sobrinus, 24 h at 37 °C): 5000 mg/L; MIC value in individual replicate Replicate 4 ([2]; S. sobrinus, 24 h at 37 °C): 5000 mg/L; MIC value in individual replicate Replicate 5 ([2]; S. sobrinus, 24 h at 37 °C): 5000 mg/L; MIC Median value ([2]; S. sobrinus, median of 5 replicates): 5000 mg/L
N=C(NCCCCCCNC(=N)NC(=N)Nc1ccc(Cl)cc1)NC(=N)Nc1ccc(Cl)cc1 [Chlorohexidine bigluconate, chlorohexidine bigluconate]	0.004 mg/mL	0.004 mg/mL	0.008 mg/mL	0.004 mg/mL	0.004 mg/mL	0.004 mg/mL	0.008 mg/mL	0.008 mg/mL	0.008 mg/mL	0.008 mg/mL	0.004 mg/mL	0.008 mg/mL	MIC [1, 5]: 8 mg/L; MIC [1, 6]: 8 mg/L; MIC [1, 7]: 8 mg/L; MIC [1, 8]: 8 mg/L; MIC [1, 9]: 8 mg/L; MIC ([1]; read-out: MIC Median value): 8 mg/L; MIC [2, 5]: 4 mg/L; MIC [2, 6]: 4 mg/L; MIC [2, 7]: 4 mg/L; MIC [2, 8]: 8 mg/L; MIC [2, 9]: 4 mg/L; MIC ([2]; read-out: MIC Median value): 4 mg/L

Reference: EP4458353A1, “ANTICARIOGENIC SYNERGETIC COMPOSITION FOR ORAL CARE” (SkyLab AG, priority 2023, dated 2024)
